In publication PMC12935787, “Clinical pharmacokinetics and pharmacometabolomics of Andrographis paniculata capsules: Bridging drug disposition and metabolic response to precision medicine” (Naunyn-Schmiedeberg's Archives of Pharmacology, 2025):
Read-outs that look alike come from different tables or passages of the source.

What was measured:
[1] = Clinical pharmacokinetics, plasma LC-MS/MS after single oral dose of AP capsules; format: in vivo, human (healthy volunteers); conditions: human, plasma; for concentration at 0 h / concentration at 0.5 h / concentration at 1 h / concentration at 1.5 h / concentration at 2 h / concentration at 2.5 h / concentration at 3 h / concentration at 3.5 h / concentration at 4 h / concentration at 5 h / concentration at 6 h / concentration at 8 h / concentration at 10 h / concentration at 12 h / concentration at 24 h: oral, 2000 mg, 2000 mg AP capsules; for concentration at 0.5 h: 0.50 h; for concentration at 1.5 h: 1.50 h; for concentration at 2.5 h: 2.50 h; for concentration at 3.5 h: 3.50 h
Method: The protocol was published (Tee et al. [2022]).
Seven calibrators ranging from 1, 2, 5,10, 20, 50, and 100 ng mL^−1 were prepared. Frozen plasma was thawed, vortexed-mixes, and processed via protein precipitation: 50 µL plasma plus 100 µL 0.01% ammonia in methanol were vortexed (20 s), centrifuged (14800 rpm, 5 min) and […] supernatant was transferred to 2 mL vials with inserts. LC–MS/MS injection volume: 10 µL. The separation used a Phenomenex Gemini-NX C18 column (150 × 2.1 mm, 5 μm) with 0.01% ammonia (A) and acetonitrile/methanol (1:1, B) as mobile phases (0.30 mL min^-1). The gradient program: 40% B (0 min), linear increase to 95% B (3 min), hold to 5 min, sharp decrease to 10% B (5.01 min), hold to 7 min, return to 40% B (7.01 min), and re-equilibration to 10 min. Mass detection employed an LCMS-8060NX triple quadrupole with heated ESI in negative mode, monitoring specific MRM transitions: andrographolide (349.3 → 331.2/287.1), 14-deoxyandrographolide (331.2 → 108.0/301.1), and neoandrographolide (479.1 → 317.4/161.1).
Pharmacokinetic parameters were determined from plasma samples (5 subjects, 15 time points) analyzed via LC–MS/MS (Shimadzu 8060NX). […] Specific MRM transitions for andrographolide, 14-deoxyandrographolide, and neoandrographolide in plasma samples of subjects are illustrated in Figure S3. […] The dose-dependent concentration–time curves, pharmacokinetics profiles (Fig. 2a, b and c) and comprehensive individual PK data (Table S4) provide a foundation for developing personalized AP dosing regimens, supporting its precision medicine potential.

[2] = design: method as in Songvut et al. [2023b]; conditions: AP dose corresponding to 60 mg of andrographolide; ref Songvut et al. [2023b]; cited from earlier work
[3] = S1, read-out: Plasma concentration
[4] = S2, read-out: Plasma concentration
[5] = S3, read-out: Plasma concentration
[6] = S4, read-out: Plasma concentration
[7] = S5, read-out: Plasma concentration
[8] = mean n=5, read-out: Mean concentration
[9] = 2000 mg AP capsules oral, fasting, n=5

concentration at 0 h [1, 3]: 0 ng/mL
concentration at 0.5 h [1, 3]: 4.67 ng/mL
concentration at 1 h [1, 3]: 2.88 ng/mL
concentration at 1.5 h [1, 3]: 7.71 ng/mL
concentration at 2 h [1, 3]: 5.18 ng/mL
concentration at 2.5 h [1, 3]: 3.32 ng/mL
concentration at 3 h [1, 3]: 6.06 ng/mL
concentration at 3.5 h [1, 3]: 3.78 ng/mL
concentration at 4 h [1, 3]: 0 ng/mL
concentration at 5 h [1, 3]: 0 ng/mL
concentration at 6 h [1, 3]: 0 ng/mL
concentration at 8 h [1, 3]: 0 ng/mL
concentration at 10 h [1, 3]: 0 ng/mL
concentration at 12 h [1, 3]: 0 ng/mL
concentration at 24 h [1, 3]: 0 ng/mL
concentration at 0 h [1, 4]: 0 ng/mL
concentration at 0.5 h [1, 4]: 0 ng/mL
concentration at 1 h [1, 4]: 4.36 ng/mL
concentration at 1.5 h [1, 4]: 4.51 ng/mL
concentration at 2 h [1, 4]: 3.4 ng/mL
concentration at 2.5 h [1, 4]: 2.73 ng/mL
concentration at 3 h [1, 4]: 4.33 ng/mL
concentration at 3.5 h [1, 4]: 0 ng/mL
concentration at 4 h [1, 4]: 0 ng/mL
concentration at 5 h [1, 4]: 0 ng/mL
concentration at 6 h [1, 4]: 0 ng/mL
concentration at 8 h [1, 4]: 0 ng/mL
concentration at 10 h [1, 4]: 0 ng/mL
concentration at 12 h [1, 4]: 0 ng/mL
concentration at 24 h [1, 4]: 0 ng/mL
concentration at 0 h [1, 5]: 0 ng/mL
concentration at 0.5 h [1, 5]: 23.4 ng/mL
concentration at 1 h [1, 5]: 10.1 ng/mL
concentration at 1.5 h [1, 5]: 6.33 ng/mL
concentration at 2 h [1, 5]: 3.06 ng/mL
concentration at 2.5 h [1, 5]: 2.52 ng/mL
concentration at 3 h [1, 5]: 1.77 ng/mL
concentration at 3.5 h [1, 5]: 0 ng/mL
concentration at 4 h [1, 5]: 0 ng/mL
concentration at 5 h [1, 5]: 2.59 ng/mL
concentration at 6 h [1, 5]: 0 ng/mL
concentration at 8 h [1, 5]: 0 ng/mL
concentration at 10 h [1, 5]: 0 ng/mL
concentration at 12 h [1, 5]: 0 ng/mL
concentration at 24 h [1, 5]: 0 ng/mL
concentration at 0 h [1, 6]: 0 ng/mL
concentration at 0.5 h [1, 6]: 1.49 ng/mL
concentration at 1 h [1, 6]: 10 ng/mL
concentration at 1.5 h [1, 6]: 13.2 ng/mL
concentration at 2 h [1, 6]: 4.7 ng/mL
concentration at 2.5 h [1, 6]: 5.46 ng/mL
concentration at 3 h [1, 6]: 1.92 ng/mL
concentration at 3.5 h [1, 6]: 2.29 ng/mL
concentration at 4 h [1, 6]: 1.69 ng/mL
concentration at 5 h [1, 6]: 1.8 ng/mL
concentration at 6 h [1, 6]: 2.01 ng/mL
concentration at 8 h [1, 6]: 2.47 ng/mL
concentration at 10 h [1, 6]: 0 ng/mL
concentration at 12 h [1, 6]: 0 ng/mL
concentration at 24 h [1, 6]: 0 ng/mL
concentration at 0 h [1, 7]: 0 ng/mL
concentration at 0.5 h [1, 7]: 3.04 ng/mL
concentration at 1 h [1, 7]: 2.29 ng/mL
concentration at 1.5 h [1, 7]: 3.39 ng/mL
concentration at 2 h [1, 7]: 4.99 ng/mL
concentration at 2.5 h [1, 7]: 3.66 ng/mL
concentration at 3 h [1, 7]: 3.28 ng/mL
concentration at 3.5 h [1, 7]: 2.09 ng/mL
concentration at 4 h [1, 7]: 1.36 ng/mL
concentration at 5 h [1, 7]: 2.4 ng/mL
concentration at 6 h [1, 7]: 1.7 ng/mL
concentration at 8 h [1, 7]: 0 ng/mL
concentration at 10 h [1, 7]: 0 ng/mL
concentration at 12 h [1, 7]: 0 ng/mL
concentration at 24 h [1, 7]: 0 ng/mL
concentration at 0 h [1, 8]: 0 ng/mL
concentration at 0.5 h [1, 8]: 6.52 ng/mL
concentration at 1 h [1, 8]: 5.94 ng/mL
concentration at 1.5 h [1, 8]: 7.02 ng/mL
concentration at 2 h [1, 8]: 4.27 ng/mL
concentration at 2.5 h [1, 8]: 3.54 ng/mL
concentration at 3 h [1, 8]: 3.47 ng/mL
concentration at 3.5 h [1, 8]: 1.63 ng/mL
concentration at 4 h [1, 8]: 0.61 ng/mL
concentration at 5 h [1, 8]: 1.36 ng/mL
concentration at 6 h [1, 8]: 0.74 ng/mL
concentration at 8 h [1, 8]: 0.49 ng/mL
concentration at 10 h [1, 8]: 0 ng/mL
concentration at 12 h [1, 8]: 0 ng/mL
concentration at 24 h [1, 8]: 0 ng/mL
AUC(0-inf) [1, 9]: 21.2 ng·h/mL
AUC(0-t) [1, 9]: 19.6 ng·h/mL
Cmax [1, 9]: 7.02 ng/mL
half-life [1, 9]: 2.18 h
SMILES: C=C1CC[C@@H]2[C@](C)(CO)[C@H](O)CC[C@@]2(C)[C@@H]1CCC1=CCOC1=O [14-deoxyandrographolide]
Cmax, previously reported [2]: 4.2 ± 3.4 ng/mL
Tmax, previously reported [2]: 1.0 h
